Data on one molecule can be found in ChEMBL document CHEMBL2331473, “Two-component covalent inhibitor” (Bioorg Med Chem, 2013).

The test system of test [1] is Tequatrovirus T4. The test is described as follows: Inhibition of Enterobacteria phage T4 DNA polymerase using biotin-labeled oligonucleotide hairpin substrate containing pre-reactive group at 3'-end assessed as loss of hairpin substrate elongation product at 10 uM incubated for 15 mins in presence of 4000 fold-excess of non-specific T7 RNA polymerase by PAGE method and filter binding assay.

Test [2] relates to Tequatrovirus T4. The test can be described thus: Inhibition of Enterobacteria phage T4 DNA polymerase using biotin-labeled oligonucleotide hairpin substrate containing pre-reactive group at 3'-end assessed as loss of hairpin substrate elongation product at 10 uM incubated for 15 mins by PAGE method and filter binding assay.

A word on the inhibition: it is the percentage by which the read-out fell short of the control.

Active and inactive are the calls of the source. The calls are words filed in the database; no cut-off is given here.

Take `O=C(CCCc1ccc2ccc3cccc4ccc1c2c34)NC/C=C/c1cn([C@H]2C[C@H](O)[C@@H](COP(=O)(O)OP(=O)(O)OP(=O)(O)O)O2)c(=O)[nH]c1=O`: the inhibition entry with Tequatrovirus T4 [1] is “Active”. Besides, in the test on Tequatrovirus T4 [2], the inhibition was determined as 87%.
